What was measured:
Assay in all cases: relative viability (nuclei count vs DMSO), 5 days (fraction); higher = more cells survive
DM3189 + Foretinib = compound: C1CN(CCN1)C2=CC=C(C=C2)C3=CN4C(=C(C=N4)C5=CC=NC6=CC=CC=C56)N=C3 [DM3189] + COc1cc2c(Oc3ccc(NC(=O)C4(C(=O)Nc5ccc(F)cc5)CC4)cc3F)ccnc2cc1OCCCN1CCOCC1 [Foretinib] (partner 0.25 µM)
Procedure, shortened: (§1)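 Relative viability was taken as the ratio of nuclei in treated wells to nuclei in vehicle wells. Lung cancer cell lines in 1536-well plates received compounds by pin tool one day after seeding, either one drug alone or a fixed anchor-drug dose plus five library-drug doses (not always all listed) in √10 steps. Nuclei were counted on 4× images after 5 days of treatment, and values are medians of duplicate plates.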

DM3189 + Decitabine = compound: C1CN(CCN1)C2=CC=C(C=C2)C3=CN4C(=C(C=N4)C5=CC=NC6=CC=CC=C56)N=C3 [DM3189] + Nc1ncn([C@H]2C[C@H](O)[C@@H](CO)O2)c(=O)n1 [Decitabine] (partner 2 µM)
Procedure, shortened: as §1

DM3189 + Palbociclib = compound: C1CN(CCN1)C2=CC=C(C=C2)C3=CN4C(=C(C=N4)C5=CC=NC6=CC=CC=C56)N=C3 [DM3189] + CC(=O)c1c(C)c2cnc(Nc3ccc(N4CCNCC4)cn3)nc2n(C2CCCC2)c1=O [Palbociclib] (partner 0.5 µM)
Procedure, shortened: as §1

DM3189 + Bortezomib = compound: C1CN(CCN1)C2=CC=C(C=C2)C3=CN4C(=C(C=N4)C5=CC=NC6=CC=CC=C56)N=C3 [DM3189] + CC(C)C[C@H](NC(=O)[C@H](Cc1ccccc1)NC(=O)c1cnccn1)B(O)O [Bortezomib] (partner 0.002 µM)
Procedure, shortened: as §1

DM3189 + Pemetrexed = compound: C1CN(CCN1)C2=CC=C(C=C2)C3=CN4C(=C(C=N4)C5=CC=NC6=CC=CC=C56)N=C3 [DM3189] + Nc1nc2[nH]cc(CCc3ccc(C(=O)N[C@@H](CCC(=O)O)C(=O)O)cc3)c2c(=O)[nH]1 [Pemetrexed] (partner 0.2 µM)
Procedure, shortened: as §1

| Cell Line | relative viability (DM3189 + Foretinib; first compound 0.08 µM) | relative viability (DM3189 + Foretinib; first compound 0.253 µM) | relative viability (DM3189 + Foretinib; first compound 0.8 µM) | relative viability (DM3189 + Foretinib; first compound 2.53 µM) | relative viability (DM3189 + Decitabine; first compound 0.08 µM) | relative viability (DM3189 + Decitabine; first compound 0.253 µM) | relative viability (DM3189 + Decitabine; first compound 0.8 µM) | relative viability (DM3189 + Decitabine; first compound 2.53 µM) | relative viability (DM3189 + Palbociclib; first compound 0.08 µM) | relative viability (DM3189 + Palbociclib; first compound 0.253 µM) | relative viability (DM3189 + Palbociclib; first compound 0.8 µM) | relative viability (DM3189 + Palbociclib; first compound 2.53 µM) | relative viability (DM3189 + Bortezomib; first compound 0.08 µM) | relative viability (DM3189 + Bortezomib; first compound 0.253 µM) | relative viability (DM3189 + Bortezomib; first compound 0.8 µM) | relative viability (DM3189 + Bortezomib; first compound 2.53 µM) | relative viability (DM3189 + Pemetrexed; first compound 0.08 µM) | relative viability (DM3189 + Pemetrexed; first compound 0.253 µM) | relative viability (DM3189 + Pemetrexed; first compound 0.8 µM) | relative viability (DM3189 + Pemetrexed; first compound 2.53 µM) |
| --- | --- | --- | --- | --- | --- | --- | --- | --- | --- | --- | --- | --- | --- | --- | --- | --- | --- | --- | --- | --- |
| A549 | 0.989 | 0.95 | 0.998 | 0.976 | 0.26 | 0.282 | 0.251 | 0.325 | – | – | – | – | – | – | – | – | – | – | – | – |
| ABC-1 | 1.14 | 1.18 | 1.08 | 0.906 | 1.1 | 1.08 | 1.21 | 1.04 | 0.713 | 0.642 | 0.498 | 0.553 | 0.364 | 0.272 | 0.244 | 0.23 | – | – | – | – |
| CAL-12T | 1.2 | 1.07 | 1.13 | 1.12 | – | – | – | – | 0.713 | 0.335 | 0.451 | 0.352 | 1.27 | 0.931 | 0.907 | 0.958 | 1.2 | 1.06 | 1.09 | 0.921 |
| HCC-44 | – | – | – | – | 0.941 | 0.904 | 0.821 | 0.934 | 0.898 | 0.976 | 0.798 | 0.951 | 0.975 | 0.905 | 0.781 | 0.995 | 0.606 | 0.602 | 0.581 | 0.622 |
| IA-LM | 1.24 | 1.2 | 1.26 | 1.32 | – | – | – | – | – | – | – | – | 1.28 | 0.935 | 1.37 | 0.956 | – | – | – | – |
| LK-2 | 1.05 | 0.88 | 0.72 | 0.858 | 0.307 | 0.278 | 0.201 | 0.187 | 0.51 | 0.393 | 0.387 | 0.243 | – | – | – | – | 0.283 | 0.198 | 0.197 | 0.183 |
| NCI-H358 | 0.733 | 0.607 | 0.714 | 0.61 | 0.226 | 0.191 | 0.217 | 0.194 | 0.278 | 0.13 | 0.126 | 0.127 | – | – | – | – | 0.172 | 0.155 | 0.181 | 0.168 |
| NCI-H522 | – | – | – | – | 0.592 | 0.652 | 0.667 | 0.636 | 1.27 | 0.808 | 1.1 | 0.998 | – | – | – | – | 0.992 | 0.898 | 0.767 | 0.873 |
| NCI-H596 | 1.12 | 0.955 | 0.695 | 1.06 | 1.09 | 1.09 | 0.842 | 1.19 | – | – | – | – | 1.34 | 0.969 | 1.03 | 1.28 | 0.49 | 0.442 | 0.512 | 0.477 |
| NCI-H727 | 0.792 | 0.821 | 0.668 | 0.818 | 0.886 | 0.769 | 0.846 | 0.976 | 0.581 | 0.581 | 0.579 | 0.608 | 1.07 | 0.854 | – | 0.716 | – | – | – | – |
| NCI-H1395 | 0.896 | 0.929 | 0.831 | 1.03 | 0.663 | 0.703 | – | 0.712 | 0.528 | 0.593 | – | 0.605 | – | – | – | – | 1.13 | 0.786 | – | 0.806 |
| NCI-H1563 | 0.953 | 0.817 | 0.98 | 0.987 | – | – | – | – | – | – | – | – | 0.945 | 0.762 | 0.887 | 1.07 | 0.715 | 0.787 | 0.755 | 0.752 |
| NCI-H1703 | 0.37 | 0.443 | 0.395 | 0.263 | – | – | – | – | – | – | – | – | 0.365 | 0.292 | 0.326 | 0.298 | – | – | – | – |
| NCI-H1792 | – | – | – | – | 0.529 | 0.519 | 0.397 | 0.579 | 0.569 | 0.675 | 0.716 | 0.609 | 0.838 | 0.926 | 0.852 | 0.656 | 0.986 | 0.98 | 0.645 | 0.616 |
| NCI-H1793 | 0.768 | 0.847 | 0.905 | 0.783 | 0.55 | 0.458 | 0.461 | 0.541 | 0.414 | 0.432 | 0.448 | 0.451 | – | – | – | – | 1.03 | 1.18 | 1.1 | 1.47 |
| NCI-H1944 | 0.93 | 0.81 | – | 0.88 | 0.42 | 0.467 | 0.384 | 0.455 | 0.351 | 0.327 | 0.288 | 0.301 | – | – | – | – | 0.661 | 0.603 | 0.603 | 0.675 |
| NCI-H2170 | 0.985 | 1.01 | 0.883 | 1.16 | 0.494 | 0.484 | 0.466 | 0.44 | 0.484 | 0.363 | 0.368 | 0.347 | – | – | – | – | 0.282 | 0.276 | 0.373 | 0.248 |
| NCI-H2228 | 0.802 | 0.828 | 0.7 | 0.517 | – | – | – | – | 1.09 | 0.75 | 0.472 | 0.307 | 1.19 | 1.12 | 0.847 | 0.659 | 0.365 | 0.315 | 0.361 | 0.226 |
| SK-MES-1 | 0.849 | 0.701 | 0.698 | 0.76 | 0.461 | 0.418 | 0.317 | 0.361 | 0.236 | 0.26 | 0.343 | 0.305 | – | – | – | – | 1.12 | 0.962 | 0.822 | 0.849 |
| SW 900 | 0.996 | 0.875 | 0.794 | 0.728 | 0.467 | – | 0.424 | 0.407 | 0.464 | – | 0.45 | 0.479 | – | – | – | – | 0.505 | – | 0.44 | 0.581 |

— the supplement of paper PMC10307832
